# Experimental data from patent publication US12433902B2, “Liposomal formulations for inhibiting SARS-CoV-2 replication and reducing lung inflammation” (priority 2021, dated 2025).
# Counter-ions that a name gives are not always drawn.
# How the values were obtained:
# [1] = tested on: SARS-CoV-2; settings: cited from earlier work
# [2] = Toxicity observation at the 20 μg dose of BUD; assay type: in vivo, C57BL/6 mice; settings: 20 μg dose of BUD
# [3] = cited from earlier work
compound,measurement,setting,value
human recombinant soluble ACE2: human recombinant soluble ACE2,viral growth in vitro,[1],reduces viral growth in vitro
CN(C)C(=O)COC(=O)Cc1ccc(OC(=O)c2ccc(NC(=N)N)cc2)cc1 [camostat mesylate],SARS-CoV-2 growth,"[1]; high doses (e.g., 100 μg/mL)",reduce SARS-CoV-2 growth partially
CCCC1O[C@@H]2C[C@H]3[C@@H]4CCC5=CC(=O)C=C[C@]5(C)[C@H]4[C@@H](O)C[C@]3(C)[C@]2(C(=O)CO)O1 (some centres unmarked) [budesonide],"toxicity to the spleen, liver, bone marrow, skin or the gastrointestinal tract",[2],without evidence of toxicity
same,half-life,[3]; BUD alone in the lungs,about 36 hours
same,effective life in the lungs,[3]; BUD alone,slightly more than one day
